Key:
galectin-3 = target: T1, galectin-3 (Homo sapiens, UniProt P17931); assay: fluorescence polarization-based galectin-3 inhibition assay; type: binding; details: read-out: Calculated Kd
T1 construct: made in house; host or cells: Escherichia coli
Procedure: NMR-spectra were recorded with a Bruker DRX-400 instrument. Chemical shifts are given in ppm, with reference to internal residual solvent peaks. Chemical shifts and coupling constants were obtained from ^1H-NMR and proton resonances were assigned from COSY experiments. High-resolution FAB mass spectra (HRMS) were recorded with a JEOL SX-120 instrument. Fluorescence polarization experiments were performed on a PolarStar instrument (BMG, Offenburg; Germany). Column chromatography was performed on SiO2 (Matrex, 60 Å, 35-70 μm, Grace Amicon) and TLC was carried out on SiO2 60 F254 (Merck) with detection under UV light and developed with aqueous sulfuric acid. Concentrations were made using rotary evaporation with bath temperature at or below 40° C. CH2Cl2 and CH3CN were dried by distillation from CaH2.
To 100 μL of galectin-3 (1 μM) and a fluorescent probe (2-(fluorescein-5/6-yl-carbonyl)-aminoethyl 4-O-[3-O-(4-methoxylbenzyl)-β-D-galactopyranosyl]-β-D-glucopyranoside, 0.1 μM) were added inhibitor solution (3.2-80 μM, 100 μL), the plate was incubated under slow rotary shaking in the dark for 5 minutes, and fluorescence polarization measured at room temperature. The fluorescence was measured from above in 96 well microtiter plates (black polystyrene, Costar, Corning, N.Y.) using a PolarStar instrument (BMG, Offenburg; Germany). Control wells containing only fluorescent probe or fluorescein were included. All dilutions and measurements were done in PBS.

galectins = details: cited from earlier work

T1 sequence (P17931 whole entry): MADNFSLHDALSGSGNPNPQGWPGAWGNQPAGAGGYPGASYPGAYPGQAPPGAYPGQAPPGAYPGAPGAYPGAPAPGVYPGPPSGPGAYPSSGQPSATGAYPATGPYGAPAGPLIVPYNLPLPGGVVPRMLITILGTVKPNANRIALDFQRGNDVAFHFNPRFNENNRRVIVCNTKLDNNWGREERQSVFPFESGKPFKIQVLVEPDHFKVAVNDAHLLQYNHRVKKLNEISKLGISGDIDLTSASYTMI

Compound: O=C(N[C@H]1[C@@H](O)[C@@H](CO)O[C@@H](S[C@@H]2O[C@H](CO)[C@H](O)[C@H](NC(=O)c3ccc([N+](=O)[O-])cc3)[C@H]2O)[C@@H]1O)c1ccc([N+](=O)[O-])cc1 [Compound 20, Bis-[3-deoxy-3-(4-nitrobenzamido)-β-D-galactopyranosyl]sulfane]
- Kd (galectin-3): 0.05 µM

Compound: O=C(N[C@H]1[C@@H](O)[C@@H](CO)O[C@@H](S[C@@H]2O[C@H](CO)[C@H](O)[C@H](NC(=O)c3ccccc3)[C@H]2O)[C@@H]1O)c1ccccc1 [Compound 17, Bis-(3-deoxy-3-benzamido-β-D-galactopyranosyl) sulfane]
- Kd (galectin-3): 1.44 µM

Compound: O=C[C@H](O)[C@@H](O)[C@@H](O)[C@H](O)CO [D-galactose]
- affinity, times lower than lactose (galectins; relative to lactose): 50-100 times

Compound: CO[C@@H]1OC(CO)[C@@H](O[C@@H]2OC(CO)[C@H](O)C(O)C2O)C(O)C1NC(C)=O (stereo partly drawn) [Compound 22, methyl β-glycoside of N-acetyllactosamine, reference compound]
- Kd (galectin-3): 52 µM

Compound: OC[C@H]1O[C@@H](O[C@H]2[C@H](O)[C@@H](O)C(O)O[C@@H]2CO)[C@H](O)[C@@H](O)[C@H]1O (stereo partly shown) [lactose]
- Kd (galectins; all galectins): 500 to 1000 µM

Compound: COc1cc(OC)cc(C(=O)NC2C(O)[C@H](S[C@@H]3OC(CO)[C@H](O)C(NC(=O)c4cc(OC)cc(OC)c4)C3O)OC(CO)[C@@H]2O)c1 (stereo partly drawn) [Compound 19, Bis-[3-deoxy-(3,5-dimethoxybenzamido)-β-D-galactopyranosyl]sulfane]
- Kd (galectin-3): 0.02 µM

Compound: O=C(N[C@H]1[C@@H](O)[C@@H](CO)O[C@@H](S[C@@H]2O[C@H](CO)[C@H](O)[C@H](NC(=O)c3ccc4ccccc4c3)[C@H]2O)[C@@H]1O)c1ccc2ccccc2c1 [Compound 21, Bis-[3-deoxy-3-(2-naphthamido)-β-D-galactopyranosyl]sulfane]
- Kd (galectin-3): 0.03 µM

Source: patent US7638623B2, “Galactoside inhibitors of galectins” (Forskarpatent I SYD AB, priority 2004, dated 2009)
